Data on 1 molecule can be found in ChEMBL document CHEMBL5370665, “Insight from Linker Investigations: Discovery of a Novel Phenylbenzothiazole Necroptosis Inhibitor Targeting Receptor-Interacting Protein Kinase 1 (RIPK1) from a Phenoxybenzothiazole Compound with Dual RIPK1/3 Targeting Activity” (J Med Chem, 2023).

Calls of active or inactive are those of the source. No cut-off for these calls is given here.

In data set [1] the test system is Mus musculus. The data set is described as follows: Anti-inflammatory activity against C57BL/6J mouse model of TNFalpha-induced systemic inflammatory response syndrome (SIRS) assessed as decrease in […] IL-1beta level in heart at 1.25 to 5 mg/kg,po 2 hrs prior to mTNFalpha and z-VAD-FMK stimulation for 8 hrs by ELISA. The settings on record: dose 1.25-5 mg/kg, time 10.0 hrs. The data set is classed as functional, organism-based.

Data set [2] relates to Mus musculus. The data set is described as follows: Anti-inflammatory activity against C57BL/6J mouse model of TNFalpha-induced systemic inflammatory response syndrome (SIRS) assessed as decrease in IL-6 level in heart at 1.25 to 5 mg/kg,po 2 hrs prior to mTNFalpha and z-VAD-FMK stimulation for 8 hrs by ELISA. The settings on record: dose 1.25-5 mg/kg, time 10.0 hrs. It counts as functional, organism-based.

Data set [3] deals with HT-29. The data set is described as follows: Anti-apoptotic activity against human HT-29 cells assessed as inhibition of TC (human TNFalpha, cycloheximide) induced apoptosis upto 1 uM pretreated with compound followed by TC stimulation for 36 hrs by CellTiter-Glo Luminescent cell viability assay. The data set is classed as functional, cell-based.
A short description of data set [4]: Acute toxicity in mouse assessed as pathological damage in liver at 100 to 200 mg/kg,IG and measured after 14 days by H and E staining based microscopy. The data set is classed as organism-based. The settings on record: in vivo, po, 336 h, dose 100-200 mg/kg, time 14 day.
The test system of data set [5] is Mus musculus. The data set is described as follows: Anti-inflammatory activity against C57BL/6J mouse model of TNFalpha-induced systemic inflammatory response syndrome (SIRS) assessed as decrease in IL-6 level in spleen at 1.25 to 5 mg/kg,po 2 hrs prior to mTNFalpha and z-VAD-FMK stimulation for 8 hrs by ELISA. It counts as functional, organism-based. The settings on record: dose 1.25-5 mg/kg, time 10.0 hrs.

Data set [6] in a line: Acute toxicity in mouse assessed as behavioral changes at 100 to 200 mg/kg,IG and measured upto 14 days. It counts as organism-based. The settings on record: in vivo, po, 336 h, dose 100-200 mg/kg, time < 14 day.
The subject of data set [7] is Mus musculus. The data set is described as follows: Anti-inflammatory activity against C57BL/6J mouse model of TNFalpha-induced systemic inflammatory response syndrome (SIRS) assessed as decrease in IL-6 level in lung at 1.25 to 5 mg/kg,po 2 hrs prior to mTNFalpha and z-VAD-FMK stimulation for 8 hrs by ELISA. It counts as functional, organism-based. The settings on record: dose 1.25-5 mg/kg, time 10.0 hrs.

The nature of data set [8]: Acute toxicity in mouse assessed as pathological damage in brain at 100 to 200 mg/kg,IG and measured after 14 days by H and E staining based microscopy. It counts as organism-based. The settings on record: in vivo, po, 336 h, dose 100-200 mg/kg, time 14 day.
The nature of data set [9]: Acute toxicity in mouse assessed as increase in body weight at 100 to 200 mg/kg,IG and measured upto 14 days. The settings on record: in vivo, po, 336 h, dose 100-200 mg/kg, time < 14 day. It counts as organism-based.
Data set [10] is described as follows: Acute toxicity in mouse assessed as body weight loss at 100 to 200 mg/kg,IG and measured upto 14 days. It counts as organism-based. The settings on record: in vivo, po, 336 h, dose 100-200 mg/kg, time < 14 day.
In data set [11] the test system is Mus musculus. The data set is described as follows: Anti-inflammatory activity against C57BL/6J mouse model of TNFalpha-induced systemic inflammatory response syndrome (SIRS) assessed as decrease in serum IL-6 level at 5 mg/kg,po 2 hrs prior to mTNFalpha and z-VAD-FMK stimulation for 8 hrs by ELISA. It counts as functional, organism-based. The settings on record: time 10.0 hrs.

The test system of data set [12] is Mus musculus. The data set is described as follows: Anti-inflammatory activity against C57BL/6J mouse model of TNFalpha-induced systemic inflammatory response syndrome (SIRS) assessed as decrease in IL-6 level in liver at 1.25 to 5 mg/kg,po 2 hrs prior to mTNFalpha and z-VAD-FMK stimulation for 8 hrs by ELISA. It counts as functional, organism-based. The settings on record: dose 1.25-5 mg/kg, time 10.0 hrs.

The subject of data set [13] is Mus musculus. The data set is described as follows: Anti-inflammatory activity against C57BL/6J mouse model of TNFalpha-induced systemic inflammatory response syndrome (SIRS) assessed as increase in body temperature at 2.5 mg/kg,po 2 hrs prior to mTNFalpha and z-VAD-FMK stimulation and measured upto 18 hrs by electric thermometer analysis. The data set is classed as functional, organism-based. The settings on record: time 20.0 hrs.

Data set [14] deals with Mus musculus. The data set is described as follows: Anti-inflammatory activity against C57BL/6J mouse model of TNFalpha-induced systemic inflammatory response syndrome (SIRS) assessed as decrease in IL-1beta level in intestine at 1.25 to 5 mg/kg,po 2 hrs prior to mTNFalpha and z-VAD-FMK stimulation for 8 hrs by ELISA. The data set is classed as functional, organism-based. The settings on record: dose 1.25-5 mg/kg, time 10.0 hrs.

For data set [15], the system named is Mus musculus. The data set is described as follows: Anti-inflammatory activity against C57BL/6J mouse model of TNFalpha-induced systemic inflammatory response syndrome (SIRS) assessed as increase in body temperature at 5 mg/kg,po 2 hrs prior to mTNFalpha and z-VAD-FMK stimulation and measured upto 18 hrs by electric thermometer analysis. The settings on record: time 20.0 hrs. It counts as functional, organism-based.

Data set [16] has as its system HT-29. The data set is described as follows: Anti-apoptotic activity against human HT-29 cells assessed as inhibition of TC (human TNFalpha, cycloheximide) induced apoptosis upto 20 uM pretreated with compound followed by TC stimulation for 36 hrs by CellTiter-Glo Luminescent cell viability assay. It counts as functional, cell-based.
Data set [17] addresses Receptor-interacting serine/threonine-protein kinase 3 (Homo sapiens, UniProt Q9Y572). The data set is described as follows: Inhibition of RIPK3 phosphorylation in TSZ induced human HT-29 cells at 1 to 1000 nM pretreated with compound followed by TSZ stimulation for 6 hrs by Western blot analysis. It counts as cell-based. The settings on record: dose 1-1000 nM.
Data set [18] relates to Mus musculus. The data set is described as follows: Anti-inflammatory activity against C57BL/6J mouse model of TNFalpha-induced systemic inflammatory response syndrome (SIRS) assessed as increase in body temperature at 1.25 mg/kg,po 2 hrs prior to mTNFalpha and z-VAD-FMK stimulation and measured upto 18 hrs by electric thermometer analysis. The data set is classed as functional, organism-based. The settings on record: time 20.0 hrs.

Data set [19] can be described thus: Cytotoxicity against human HT-29 cells assessed as reduction in cell viability incubated for 16 to 24 hrs by CellTiter-Glo Luminescent cell viability assay. It counts as toxicity, cell-based. The settings on record: time 16-24 hrs.
Data set [20] relates to Mus musculus. The data set is described as follows: Anti-inflammatory activity against C57BL/6J mouse model of TNFalpha-induced systemic inflammatory response syndrome (SIRS) assessed as decrease in IL-6 level in intestine at 1.25 to 5 mg/kg,po 2 hrs prior to mTNFalpha and z-VAD-FMK stimulation for 8 hrs by ELISA. The data set is classed as functional, organism-based. The settings on record: dose 1.25-5 mg/kg, time 10.0 hrs.

Data set [21] can be described thus: Metabolic stability in human liver mitochondria assessed as degradation rate at 4 micromol/L and measured upto 240 mins. The settings on record: 4 h, 4 µM, dose 4 µmol/L. It counts as ADME.
Data set [22] deals with T1, Mixed lineage kinase domain-like protein (Homo sapiens) (UniProt Q8NB16).
T1 sequence (whole entry): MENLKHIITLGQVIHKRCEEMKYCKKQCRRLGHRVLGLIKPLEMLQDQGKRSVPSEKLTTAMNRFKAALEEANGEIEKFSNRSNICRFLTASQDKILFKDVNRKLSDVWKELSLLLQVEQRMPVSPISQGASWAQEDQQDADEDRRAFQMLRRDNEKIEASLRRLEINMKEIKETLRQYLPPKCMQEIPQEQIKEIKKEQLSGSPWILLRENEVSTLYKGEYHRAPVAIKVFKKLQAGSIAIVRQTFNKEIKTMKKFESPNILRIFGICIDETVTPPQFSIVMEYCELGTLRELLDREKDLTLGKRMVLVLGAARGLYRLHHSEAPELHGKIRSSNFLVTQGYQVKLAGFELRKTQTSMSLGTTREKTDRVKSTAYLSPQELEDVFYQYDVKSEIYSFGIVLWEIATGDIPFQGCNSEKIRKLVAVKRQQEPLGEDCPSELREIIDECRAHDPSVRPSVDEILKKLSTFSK
The data set is described as follows: Inhibition of MLKL phosphorylation in TSZ induced human HT-29 cells at 1 to 1000 nM pretreated with compound followed by TSZ stimulation for 6 hrs by Western blot analysis. It counts as cell-based. The settings on record: dose 1-1000 nM.

Data set [23] deals with HT-29. The data set is described as follows: Anti-necroptic activity against human HT-29 cells assessed as inhibition of TSZ (TNFalpha, Smac mimetic and z-VAD-FMK) induced necroptosis pretreated with compound followed by TSZ stimulation for 16 to 18 hrs by CellTiter-Glo Luminescent cell viability assay. It counts as functional, cell-based.

Sequence of Receptor-interacting serine/threonine-protein kinase 3 (Q9Y572 whole entry, looked up): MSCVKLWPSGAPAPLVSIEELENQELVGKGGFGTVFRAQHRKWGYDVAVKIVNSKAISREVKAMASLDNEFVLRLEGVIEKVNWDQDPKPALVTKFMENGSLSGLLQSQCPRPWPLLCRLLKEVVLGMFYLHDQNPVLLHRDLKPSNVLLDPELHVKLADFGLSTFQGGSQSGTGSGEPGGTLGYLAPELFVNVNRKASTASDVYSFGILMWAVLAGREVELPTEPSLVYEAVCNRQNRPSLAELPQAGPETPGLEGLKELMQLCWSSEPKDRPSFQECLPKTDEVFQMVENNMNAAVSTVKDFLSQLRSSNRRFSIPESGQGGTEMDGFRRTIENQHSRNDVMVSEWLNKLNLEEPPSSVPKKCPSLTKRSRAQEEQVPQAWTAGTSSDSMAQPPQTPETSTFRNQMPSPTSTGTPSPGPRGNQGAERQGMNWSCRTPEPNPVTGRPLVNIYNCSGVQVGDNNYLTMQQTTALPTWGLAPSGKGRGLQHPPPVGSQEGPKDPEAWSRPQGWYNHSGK

`O=C(Cc1cccc(OC(F)(F)F)c1)Nc1cc(-c2ccc3nc(NC(=O)C4CC4)sc3c2)ccc1F`: the result with Mus musculus [1], in the data set on Mus musculus [11], in the data set on Mus musculus [13], in the data set with Mus musculus [14], in the data set with Mus musculus [15] and in the data set on Mus musculus [18] was Active. Besides, the Activity result in the data set with Mus musculus [2] is “Dose-Dependent Effect”; in data set [4], “Non-Toxic”; in the data set with Mus musculus [5] it was “Dose-Dependent Effect”; in [6], “Non-Toxic”; in the data set on Mus musculus [7], “Dose-Dependent Effect”; in data set [8], “Non-Toxic”. The Activity result in data set [9] is “Non-Toxic”; in data set [10], “Non-Toxic”; in the data set with Mus musculus [12] it was “Dose-Dependent Effect”; in the data set with Mus musculus [20], “Dose-Dependent Effect”. For the same molecule, the outcome with HT-29 [3] and in the data set with HT-29 [16] was inactive. Further, the inhibition result in data set [17] and in [22] was “Dose-Dependent Effect” each time. In addition, the CC50 in data set [19] was > 10000 nM. For the same molecule, in data set [21], the Stability result is listed as “Stable”. In addition, the EC50 in the data set on HT-29 [23] was determined as 17 nM.
